Measured values taken from patent EP4578856A1, “HETEROCYCLIC COMPOUND” (Ubience Inc., priority 2022, dated 2024).

Molecular target: ROCK2 protein (Homo sapiens, UniProt O75116)
Test: Degradation inducing activity of ROCK2 protein in HUVEC cells, Western blotting (Simple Western JESS)
Assay type: cell-based
Parameters: endogenous in cells; host or cells: HUVEC (ATCC CRL-1730)
Conditions: HUVEC, 24 h; for inhibition at 1 µM: degradation rate at 1 µM; for inhibition at 10 µM: degradation rate at 10 µM
Method in brief: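 HUVEC cells treated 24 h with compound at 10 µM or 1 µM, then lysed; ROCK2 quantified by capillary Western (Simple Western JESS) using rabbit mAb D1B1, normalized to total loaded protein. Degradation rate (%) calculated relative to DMSO control set at 100%, binned A ≥75%, B 50–75%, C 25–50%, D <25%.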

ROCK2 protein, sequence (O75116 whole entry): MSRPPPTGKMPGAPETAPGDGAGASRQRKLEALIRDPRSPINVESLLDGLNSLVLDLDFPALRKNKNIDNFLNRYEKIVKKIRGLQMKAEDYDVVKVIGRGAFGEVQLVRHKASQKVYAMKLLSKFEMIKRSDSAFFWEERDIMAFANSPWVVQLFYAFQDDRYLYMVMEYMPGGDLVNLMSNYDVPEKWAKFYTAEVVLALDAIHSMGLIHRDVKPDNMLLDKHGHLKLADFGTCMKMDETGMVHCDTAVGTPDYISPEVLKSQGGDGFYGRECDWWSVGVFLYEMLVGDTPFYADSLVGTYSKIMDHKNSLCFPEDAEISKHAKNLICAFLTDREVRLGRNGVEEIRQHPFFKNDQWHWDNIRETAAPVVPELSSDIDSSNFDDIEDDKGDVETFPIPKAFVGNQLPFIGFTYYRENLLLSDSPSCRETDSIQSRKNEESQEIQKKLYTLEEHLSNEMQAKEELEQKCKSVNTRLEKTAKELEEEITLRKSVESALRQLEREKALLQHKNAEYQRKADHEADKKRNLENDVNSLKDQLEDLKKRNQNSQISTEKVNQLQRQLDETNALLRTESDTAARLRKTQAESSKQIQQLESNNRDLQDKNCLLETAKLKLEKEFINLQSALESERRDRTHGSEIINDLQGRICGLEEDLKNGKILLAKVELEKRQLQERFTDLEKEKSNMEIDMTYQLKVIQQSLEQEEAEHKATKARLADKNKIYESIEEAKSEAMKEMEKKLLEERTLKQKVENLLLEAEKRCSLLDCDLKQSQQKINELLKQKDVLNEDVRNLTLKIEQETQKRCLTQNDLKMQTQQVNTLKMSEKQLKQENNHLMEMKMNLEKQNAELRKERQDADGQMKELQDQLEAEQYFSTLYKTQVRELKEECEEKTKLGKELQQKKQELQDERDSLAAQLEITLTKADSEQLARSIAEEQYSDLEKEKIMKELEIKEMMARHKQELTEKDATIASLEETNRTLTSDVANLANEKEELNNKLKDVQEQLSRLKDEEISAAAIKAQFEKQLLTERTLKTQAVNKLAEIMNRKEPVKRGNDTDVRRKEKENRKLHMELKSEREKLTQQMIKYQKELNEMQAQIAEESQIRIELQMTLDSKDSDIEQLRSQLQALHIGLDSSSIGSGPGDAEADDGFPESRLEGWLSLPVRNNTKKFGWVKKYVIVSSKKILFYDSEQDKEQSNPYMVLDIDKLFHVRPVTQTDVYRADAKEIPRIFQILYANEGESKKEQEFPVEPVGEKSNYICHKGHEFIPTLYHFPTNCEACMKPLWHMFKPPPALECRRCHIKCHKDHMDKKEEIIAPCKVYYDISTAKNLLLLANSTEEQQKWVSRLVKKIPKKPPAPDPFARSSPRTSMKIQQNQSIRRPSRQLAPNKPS

| inhibition at 1 µM [%] | inhibition at 10 µM [%] | Structure (SMILES) |
| --- | --- | --- |
| ≥ 75 | ≥ 75 | COC[C@H]1CN[C@H](C)CN1CC(=O)N1CC(C)(C)c2ncc(Cc3ccccc3OCCOCCOCCOCCOCCOCCOCCN[C@H](C)c3ccc(C(=O)Nc4ccncc4)cc3)cc21 [Example 69, 4-((R)-23-(2-((1-(2-((2R,5R)-2-(Methoxymethyl)-5-methylpiperazin-1-yl)acetyl)-3,3-dimethyl-2,3-dihydro-1H-pyrrolo[3,2-b]pyridin-6-yl)methyl)phenoxy)-6,9,12,15,18,21-hexaoxa-3-azatricosan-2-yl)-N-(pyridin-4-yl)benzamide] |
| 25 to 50 | 25 to 50 | COC[C@H]1CN[C@H](C)CN1CC(=O)N1CC(C)(C)c2ncc(Cc3cccc(OCCOCCOCCOCCOCCN[C@H](C)c4ccc(C(=O)Nc5ccncc5)cc4)c3)cc21 [Example 46, 4-((R)-17-(3-((1-(2-((2R,5R)-2-(Methoxymethyl)-5-methylpiperazin-1-yl)acetyl)-3,3-dimethyl-2,3-dihydro-1H-pyrrolo[3,2-b]pyridin-6-yl)methyl)phenoxy)-6,9,12,15-tetraoxa-3-azaheptadecan-2-yl)-N-(pyridin-4-yl)benzamide] |
| 50 to 75 | ≥ 75 | COC[C@H]1CN[C@H](C)CN1CC(=O)N1CC(C)(C)c2ncc(Cc3cccc(OCCOCCOCCNC[C@@H](C(=O)Nc4ccc5cnccc5c4)c4ccccc4)c3)cc21 [Example 58, (S)-N-(Isoquinolin-6-yl)-3-((2-(2-(2-(3-((1-(2-((2R,5R)-2-(methoxymethyl)-5-methylpiperazin-1-yl)acetyl)-3,3-dimethyl-2,3-dihydro-1H-pyrrolo[3,2-b]pyridin-6-yl)methyl)phenoxy)ethoxy)ethoxy)ethyl)amino)-2-phenylpropanamide] |
| 50 to 75 | ≥ 75 | COC[C@H]1CN[C@H](C)CN1CC(=O)N1CC(C)(C)c2ncc(Cc3ccccc3OCCOCCOCCOCCOCCOCCOCCNC[C@@H](C(=O)Nc3ccc4cnccc4c3)c3ccccc3)cc21 [Example 83, (S)-N-(Isoquinolin-6-yl)-1-(2-((1-(2-((2R,5R)-2-(methoxymethyl)-5-methylpiperazin-1-yl)acetyl)-3,3-dimethyl-2,3-dihydro-1H-pyrrolo[3,2-b]pyridin-6-yl)methyl)phenoxy)-23-phenyl-3,6,9,12,15,18-hexaoxa-21-azatetracosan-24-amide] |
| 25 to 50 | ≥ 75 | COC[C@H]1CN[C@H](C)CN1CC(=O)N1CC(C)(C)c2ncc(Cc3cccc(OCCOCCN[C@H](Cc4cccc(F)c4)C(=O)Nc4ccc(-c5ccncc5)cc4)c3)cc21 [Example 50, (R)-3-(3-Fluorophenyl)-2-((2-(2-(3-((1-(2-((2R,5R)-2-(methoxymethyl)-5-methylpiperazin-1-yl)acetyl)-3,3-dimethyl-2,3-dihydro-1H-pyrrolo[3,2-b]pyridin-6-yl)methyl)phenoxy)ethoxy)ethyl)amino)-N-(4-(pyridin-4-yl)phenyl)propanamide] |
| 50 to 75 | ≥ 75 | COC[C@H]1CN[C@H](C)CN1CC(=O)N1CC(C)(C)c2ncc(Cc3cccc(OCCOCCOCCN[C@H](Cc4cccc(F)c4)C(=O)Nc4ccc(-c5ccncc5)cc4)c3)cc21 [Example 51, (R)-3-(3-Fluorophenyl)-2-((2-(2-(2-(3-((1-(2-((2R,5R)-2-(methoxymethyl)-5-methylpiperazin-1-yl)acetyl)-3,3-dimethyl-2,3-dihydro-1H-pyrrolo[3,2-b]pyridin-6-yl)methyl)phenoxy)ethoxy)ethoxy)ethyl)amino)-N-(4-(pyridin-4-yl)phenyl)propenamide] |
| ≥ 75 | ≥ 75 | COC[C@H]1CN[C@H](C)CN1CC(=O)N1CC(C)(C)c2nc(CN(C)CCOCCOCCOCCOCCN[C@H](C)c3ccc(C(=O)Nc4ccncc4)cc3)c(Cc3ccc(F)cc3)cc21 [Example 25, 4-((R)-1-(6-(4-Fluorobenzyl)-1-(2-((2R,5R)-2-(methoxymethyl)-5-methylpiperazin-1-yl)acetyl)-3,3-dimethyl-2,3-dihydro-1H-pyrrolo[3,2-b]pyridin-5-yl)-2-methyl-5,8,11,14-tetraoxa-2,17-diazanonadecan-18-yl)-N-(pyridin-4-yl)benzamide] |
